From ChEMBL document CHEMBL3792286, “A convenient and efficient approach to polyfluorosalicylic acids and their tuberculostatic activity” (Bioorg Med Chem Lett, 2016)
≈ marks a conversion by molar mass, not a printed value. Calls of active or inactive are those of the source. The calls are words filed in the database; no cut-off is given here.

Key:
[1] = test system: Mycobacterium tuberculosis; assay: microbe, parasite or virus in culture; conditions: 240 h
[2] = test system: Mycobacterium tuberculosis

CC1COc2c(N3CCN(C)CC3)c(F)cc3c(=O)c(C(=O)O)cn1c23 (stereo not given) [OFLOXACIN]
MIC [1]: 0.1 µg/mL (≈ 0.277 µM)

O=C(O)c1c(O)c(F)c(F)c(F)c1F
MIC [1]: 0.7 µg/mL (≈ 3.33 µM)

O=C(O)c1cc(F)c(F)cc1O
MIC [1]: 0.7 µg/mL (≈ 4.02 µM)

O=C(O)c1ccc(F)c(F)c1O
MIC [1]: 1.5 µg/mL (≈ 8.62 µM)

NNC(=O)c1ccncc1 [ISONIAZID]
MIC [2]: inactive
